# Legend:
# [1] = system: HRECs (Human Retinal Endothelial Cells); experiment: Screening of synthesized derivatives for ability to inhibit serum depletion-induced vascular endothelial cell apoptosis (MTT assay, cell morphology); format: cell-based; details: serum-free, 10 μg/ml; for ability to inhibit apoptosis, ranking among synthetic derivatives and control groups: comparison with control groups; for ability to inhibit apoptosis compared with Sac-1004: relative to control Sac-1004
# Procedure: FIGS. 1a-1c and FIGS. 2a-2c show the result of screening Rk1 analogs that protect HRECs (Human Retinal Endothelial Cells) from serum depletion-induced apoptosis. HRECs (3×10^5 cells/well) were seeded on a 24-well plate in EGM9 medium containing 20% fetal bovine serum. The next day, the cells were transferred to a medium containing 10 μg/mL of the synthesized compound. Cell viability was determined by MTT assay 48 hours later. […] Con is indicative of cells treated with DMSO.
# (§1) Human retinal endothelial cells (HRECs) purchased from Cell Systems (USA) were seeded on a 100 mm culture dish containing EGM medium (Life Technologies, USA) containing 20% (w/v) fetal bovine serum (FBS, HyClone, Canada), 100 units/mL penicillin (Invitrogen, USA), 100 μg/mL streptomycin (Invitrogen, USA), 3 ng/mL fibroblast growth factor (Upstate Biotechnology, USA) and 5 units/mL heparin and cultured in a 5% CO2 incubator at 37° C.
# Based on the previous researches conducted by the present inventors, synthesized derivatives of Rk1 having a steroid backbone and having an ability to inhibit vascular endothelial cell apoptosis were screened. Vascular endothelial cells HRECs (3×10^5 cells/well) were plated on a 24-well plate in which 1 ml of EGM medium containing 20% fetal bovine serum was present. The next day, the cells were transferred to serum-free EGM media containing 10 μg/ml of the compounds synthesized in Synthetic Examples 1 and 2. After 24 hours, cell viability was determined by MTT assay (Mosmann T, Journal of Immunological Methods 65(1-2):5563(1983); Cory A H, et al., Cancer Communications 3(7):20712(1991)).
# [2] = system: HRECs (Human Retinal Endothelial Cells); experiment: Ability to inhibit apoptosis of Sac-1009, Sac-1104 and Sac-1019 according to concentration (serum removal, MTT assay); format: cell-based; details: for inhibition of apoptosis of HRECs, concentration dependence: serum-free EGM, 0, 0.1, 1, 5 and 10 μg/ml; for inhibition of apoptosis of HRECs, concentration dependence / concentration of the most effective ability to inhibit apoptosis: MTT after 48 hours, FIG. 3; for concentration of the most effective ability to inhibit apoptosis: serum-free EGM, tested 0-10 μg/ml; for cell viability of HRECs in a serum depletion environment: summary of test examples 1 and 2
# Procedure: HRECs (3×10^5 cells/well) were seeded on a 24-well plate in EGM medium containing 20% fetal bovine serum. The next day, the cells were transferred to a serum depletion EGM medium containing Sac-1009, Sac-1104 or Sac-1019. Sac-1009, Sac-1104 and Sac-1019 were added into the medium at a concentration of 0, 0.1, 1, 5 or 10 μg/mL, respectively. Cell viability was determined by MTT assay 48 hours later.
# as §1
# After apoptosis was induced by removing serum from the medium of vascular endothelial cells, Sac-1009, Sac-1104, and Sac-1019 were applied to cells to measure the ability to inhibit apoptosis. Vascular endothelial cells HRECs (3×10^5 cells/well) were plated on a 24-well plate in which 1 ml of EGM medium containing 20% fetal bovine serum was present. The next day, the cells were transferred to serum-free EGM media containing Sac-1009, Sac-1104, and Sac-1019. Sac-1009, Sac-1104, and Sac-1019 were added at concentrations of 0, 0.1, 1, 5, and 10 μg/ml. After 48 hours, cell viability was determined by MTT assay.
# [3] = system: HRECs (Human Retinal Endothelial Cells); experiment: Screening based on change in cytoskeleton: VEGF-induced actin stress fibers, rhodamine phalloidin staining; format: cell-based; details: for ability to inhibit the formation of actin stress fibers induced by VEGF: confluent HRECs pretreated with 10 μg/mL compound for 1 hour before 20 ng/ml VEGF, FIGS. 4 and 5; for abilities to inhibit the formation of actin stress fibers induced by VEGF and maintain the cortical actin ring structure, ranking: confluent HRECs, pretreated 1 hour, 20 ng/ml VEGF
# Procedure: Confluent HRECs were pretreated with the compounds (10 μg/mL) for 60 minutes before treating with 20 ng/mL VEGF. The cells were then stained with rhodamine phalloidin.
# as §1
# It is known that the change in the actin structure of the cytoskeleton is closely related with the permeability of vascular endothelial cells. Increased permeability of vascular endothelial cells leads to an increase in actin stress fibers and a decrease in cortical actin ring structures. Based on this, the ability to inhibit vascular endothelial permeability of the synthesized derivatives of Rk1 was screened. Confluent HRECs were pretreated with […] the synthesized compounds for 1 hour before the treatment with 20 ng/ml VEGF (Upstate Biotechnology). Then, the cells were fixed with 4% paraformaldehyde for 20 minutes at room temperature, and washed 3 times with PBS (pH 7.4). Then, the cells were permeabilized with 0.1% Triton X-100/PBS, and reacted with 0.1 mg/ml rhodamine phalloidin (Molecular Probes) for 1 hour. Then, the cells were observed under a fluorescence microscope (Olympus).
# [4] = system: HRECs (Human Retinal Endothelial Cells); details: cited from earlier work; for ability to inhibit apoptosis (derivatives of previous researches, control groups): obtained in the previous researches by the inventors (Korean Patent Application Publication No. 2011-0047170); for ability to inhibit apoptosis, comparison in the previous researches: relative to Rk1 or to other earlier derivatives
Structure (SMILES),"ability to inhibit apoptosis, ranking among synthetic derivatives and control groups [1]",ability to inhibit apoptosis compared with Sac-1004 [1],"inhibition of apoptosis of HRECs, concentration dependence [2]",concentration of the most effective ability to inhibit apoptosis [2],cell viability of HRECs in a serum depletion environment [2],ability to inhibit the formation of actin stress fibers induced by VEGF [3],"abilities to inhibit the formation of actin stress fibers induced by VEGF and maintain the cortical actin ring structure, ranking [3]","ability to inhibit apoptosis (derivatives of previous researches, control groups) [4]","ability to inhibit apoptosis, comparison in the previous researches [4]"
CC(=O)OC[C@H]1OC(O[C@H]2CC[C@@]3(C)C(=CCC4C3CC[C@@]3(C)C4CC[C@@H]3/C(C)=N/OC3CCCC3)C2)C=C[C@@H]1OC(C)=O (stereo partly drawn) [Sac-1019],the most excellent,equivalent to that of Sac-1004,concentration-dependent manner,10 µg/mL,increase cell viability,inhibit the formation of actin stress fibers induced by VEGF,the most excellent,,
CC(=O)OCC1OC(OC2CCC3(C)C(=CCC4C3CCC3(C)C(C(C)CCCC(C)C)CCC43)C2)C=CC1OC(C)=O (stereo not drawn) [Sac-0601],,,,,,,,having an ability to inhibit apoptosis,equivalent to that of Rk1
CC(=O)OC[C@H]1OC(O[C@H]2CC[C@@]3(C)C(=CCC4C3CC[C@@]3(C)C4CC[C@@H]3/C(C)=N/OC3C=CCCC3)C2)C=C[C@@H]1OC(C)=O (stereo partly drawn) [Sac-1104],the most excellent,equivalent to that of Sac-1004,concentration-dependent manner,10 µg/mL,increase cell viability,inhibit the formation of actin stress fibers induced by VEGF,the most excellent,,
COC(=O)CCC/C=C(\C)[C@H]1CCC2C3CC=C4C[C@@H](OC5C=C[C@H](OC(C)=O)[C@@H](COC(C)=O)O5)CC[C@]4(C)C3CC[C@@]21C (stereo partly drawn) [Sac-1004],,,,,,,,having an ability to inhibit apoptosis,the most excellent
